Assay [1] has as its system human ovarian cancer cell line SK-OV-3 (인간 난소암 세포주 (SK-OV-3)). The assay is described as follows: SRB cytotoxicity test, human ovarian cancer cell line SK-OV-3. The class given is cell-based. (Sulforhodamine B stains cellular protein and so reports cell mass.)
Assay [2] has as its system human colon cancer cell line HCT15 (인간 결장암 세포주 (HCT15)). The assay is described as follows: SRB cytotoxicity test, human colon cancer cell line HCT15. The class given is cell-based.
For assay [3], the system named is human lung cancer cell line A549 (인간 폐암 세포주 (A549)). The assay is described as follows: SRB cytotoxicity test, human lung cancer cell line A549. The class given is cell-based.
Assay [4] deals with human melanoma cell line SK-MEL-2 (인간 흑색종암 세포주 (SK-MEL-2)). The experiment in a line: SRB cytotoxicity test, human melanoma cell line SK-MEL-2. The format is cell-based.
Assay [5] relates to human central nervous system cancer cell line XF498 (인간 중추 신경계암 세포주 (XF498)). The experiment in a line: SRB cytotoxicity test, human central nervous system cancer cell line XF498. The format is cell-based.
For assay [6], the system named is human ovarian cancer cell line (SK-OV-3) (인간 난소암 세포주(SK-OV-3)). The conditions noted are these: literature (Y. S. Kim et al. 2003); cited from earlier work.
Where [7] appears, read: SK-OV-3, SRB assay, 48 h incubation, read-out: ED50 (the source's name).
The mark [8] stands for this setting: HCT 15, SRB assay, 48 h incubation, read-out: ED50 (the source's name).
[9] abbreviates: A549, SRB assay, 48 h incubation, read-out: ED50 (the source's name).
Where [10] appears, read: SK-MEL-2, SRB assay, 48 h incubation, read-out: ED50 (the source's name).
Setting [11] is: XF498, XF 498, SRB assay, 48 h incubation, read-out: ED50 (the source's name).

≈ marks a conversion by molar mass, not a printed value. Like-named read-outs stand apart in the source and are kept apart here.

Results on ten molecules are retold here after patent KR20050021629A, “신규한 벤조플루오렌 디온계 화합물” (학교법인 이화학당, priority 2003, dated 2005).

`O=C1C(=O)c2c(nc3ccc(Cl)cn23)-c2ncccc21` [실시예 3, 8-클로로-1,6b,11-트리아자-벤조[3,2-a]플루오렌-5,6-디온]: the IC50 in assay [1] (setting [7]) was 0.55 µg/mL (≈ 1.94 µM); in assay [2] (setting [8]), 0.99 µg/mL (≈ 3.49 µM); in assay [3] (setting [9]), 0.59 µg/mL (≈ 2.08 µM); in assay [4] (setting [10]), 0.65 µg/mL (≈ 2.29 µM); in assay [5] (setting [11]) it was 0.45 µg/mL (≈ 1.59 µM).

For the molecule `O=C1C(=O)c2c(nc3cnccn23)-c2ncccc21` [실시예 5, 1,6b,9,11-테트라아자-벤조[a]플루오렌-5,6-디온], the IC50 in assay [1] (setting [7]) was 0.02 µg/mL (≈ 0.0799 µM); in assay [2] (setting [8]), 0.047 µg/mL (≈ 0.188 µM); in assay [3] (setting [9]), 0.051 µg/mL (≈ 0.204 µM); in assay [4] (setting [10]), 0.032 µg/mL (≈ 0.128 µM); in assay [5] (setting [11]), 0.03 µg/mL (≈ 0.12 µM).

As for `O=C1C(=O)c2c(nc3ncccn23)-c2ncccc21` [실시예 4, 1,6b,10,11-테트라아자-벤조[a]플루오렌-5,6-디온], the IC50 in assay [1] (setting [7]) came out at 0.061 µg/mL (≈ 0.244 µM); in assay [2] (setting [8]), 0.077 µg/mL (≈ 0.308 µM); in assay [3] (setting [9]), 0.12 µg/mL (≈ 0.48 µM); in assay [4] (setting [10]) it was 0.034 µg/mL (≈ 0.136 µM); in assay [5] (setting [11]), 0.081 µg/mL (≈ 0.324 µM).

Take `COc1cc(C2c3cc4c(cc3C(OC3OC5COC(C)OC5C(O)C3O)C3COC(=O)C23)OCO4)cc(OC)c1O` (stereo not shown) [에토포시드, reference compound]: the IC50 in assay [1] (SK-OV-3, 48 h, read-out: ED50) stood at 1.84 µg/mL (≈ 3.13 µM); in assay [2] (HCT-15, 48 h, read-out: ED50), 0.97 µg/mL (≈ 1.65 µM); in assay [3] (A549, 48 h, read-out: ED50), 0.577 µg/mL (≈ 0.98 µM); in assay [4] (SK-MEL-2, 48 h, read-out: ED50), 1.37 µg/mL (≈ 2.33 µM); in assay [5] (XF498, 48 h, read-out: ED50) it was 1.43 µg/mL (≈ 2.43 µM).

Turning to `Cc1cccc2nc3c(n12)C(=O)C(=O)c1cccnc1-3` [실시예 2, 7-메틸-1,6b,11-트리아자-벤조[3,2-a]플루오렌-5,6-디온], the IC50 amounted to 1.04 µg/mL (≈ 3.95 µM) in assay [1] (setting [7]); 0.71 µg/mL (≈ 2.7 µM) in assay [2] (setting [8]); 0.23 µg/mL (≈ 0.874 µM) in assay [3] (setting [9]); 1.08 µg/mL (≈ 4.1 µM) in assay [4] (setting [10]); 0.2 µg/mL (≈ 0.76 µM) in assay [5] (setting [11]).

Regarding `COc1cccc2c1C(=O)c1c(O)c3c(c(O)c1C2=O)C[C@@](O)(C(=O)CO)C[C@@H]3O[C@H]1C[C@H](N)[C@H](O)[C@H](C)O1` [독소루비신, reference compound], the IC50 was 0.21 µg/mL (≈ 0.386 µM) in assay [1] (SK-OV-3, 48 h, read-out: ED50); 0.19 µg/mL (≈ 0.35 µM) in assay [2] (HCT-15, 48 h, read-out: ED50); 0.093 µg/mL (≈ 0.171 µM) in assay [3] (A549, 48 h, read-out: ED50); 0.11 µg/mL (≈ 0.202 µM) in assay [4] (SK-MEL-2, 48 h, read-out: ED50); 0.187 µg/mL (≈ 0.344 µM) in assay [5] (XF498, 48 h, read-out: ED50).

Take `Cc1cccn2c3c(nc12)-c1ncccc1C(=O)C3=O` [실시예 1, 10-메틸-1,6b,11-트리아자-벤조[3,2-a]플루오렌-5,6-디온]: the IC50 in assay [1] (setting [7]) came to 0.073 µg/mL (≈ 0.277 µM); in assay [2] (setting [8]) it was 0.044 µg/mL (≈ 0.167 µM); in assay [3] (setting [9]) it was 0.054 µg/mL (≈ 0.205 µM); in assay [4] (setting [10]) it was 0.11 µg/mL (≈ 0.418 µM); in assay [5] (setting [11]), 0.033 µg/mL (≈ 0.125 µM).

2-메틸-4a,10,11-트리아자-벤조[3,2-a]플루오렌-5,6-디온: the “anticancer effect compared with doxorubicin” value in assay [6] was “독소루비신보다 항암효과가 우수함”.

As for `Cc1ccc2nc3c(n2c1)C(=O)C(=O)c1cnncc1-3` [실시예 7, 8-메틸-2,3,6b,11-테트라아자-벤조[a]플루오렌-5,6-디온], the IC50 in assay [1] (setting [7]) was found to be 1.01 µg/mL (≈ 3.82 µM); in assay [2] (setting [8]), 0.92 µg/mL (≈ 3.48 µM); in assay [3] (setting [9]) it was 3.54 µg/mL (≈ 13.4 µM); in assay [4] (setting [10]), 1.77 µg/mL (≈ 6.7 µM); in assay [5] (setting [11]), 1.77 µg/mL (≈ 6.7 µM).

On to `O=C1C(=O)c2c(nc3ccccn23)-c2cnncc21` [실시예 6, 2,3,6b,11-테트라아자-벤조[a]플루오렌-5,6-디온], for which the IC50 in assay [1] (setting [7]) was found to be 0.2 µg/mL (≈ 0.799 µM); in assay [2] (setting [8]) it was 0.1 µg/mL (≈ 0.4 µM); in assay [3] (setting [9]) it was 0.022 µg/mL (≈ 0.0879 µM); in assay [4] (setting [10]) it was 0.12 µg/mL (≈ 0.48 µM); in assay [5] (setting [11]) it was 0.12 µg/mL (≈ 0.48 µM).
